From paper PMC8291035 (Biochemical pharmacology, 2021)
pIC50: −log10 of the molar value.

Target: ABCB1 (P-glycoprotein, P-gp, MDR1) (Homo sapiens, UniProt P08183)
Test: cell-based

Sequence of ABCB1 (P-glycoprotein, P-gp, MDR1) (P08183 whole entry): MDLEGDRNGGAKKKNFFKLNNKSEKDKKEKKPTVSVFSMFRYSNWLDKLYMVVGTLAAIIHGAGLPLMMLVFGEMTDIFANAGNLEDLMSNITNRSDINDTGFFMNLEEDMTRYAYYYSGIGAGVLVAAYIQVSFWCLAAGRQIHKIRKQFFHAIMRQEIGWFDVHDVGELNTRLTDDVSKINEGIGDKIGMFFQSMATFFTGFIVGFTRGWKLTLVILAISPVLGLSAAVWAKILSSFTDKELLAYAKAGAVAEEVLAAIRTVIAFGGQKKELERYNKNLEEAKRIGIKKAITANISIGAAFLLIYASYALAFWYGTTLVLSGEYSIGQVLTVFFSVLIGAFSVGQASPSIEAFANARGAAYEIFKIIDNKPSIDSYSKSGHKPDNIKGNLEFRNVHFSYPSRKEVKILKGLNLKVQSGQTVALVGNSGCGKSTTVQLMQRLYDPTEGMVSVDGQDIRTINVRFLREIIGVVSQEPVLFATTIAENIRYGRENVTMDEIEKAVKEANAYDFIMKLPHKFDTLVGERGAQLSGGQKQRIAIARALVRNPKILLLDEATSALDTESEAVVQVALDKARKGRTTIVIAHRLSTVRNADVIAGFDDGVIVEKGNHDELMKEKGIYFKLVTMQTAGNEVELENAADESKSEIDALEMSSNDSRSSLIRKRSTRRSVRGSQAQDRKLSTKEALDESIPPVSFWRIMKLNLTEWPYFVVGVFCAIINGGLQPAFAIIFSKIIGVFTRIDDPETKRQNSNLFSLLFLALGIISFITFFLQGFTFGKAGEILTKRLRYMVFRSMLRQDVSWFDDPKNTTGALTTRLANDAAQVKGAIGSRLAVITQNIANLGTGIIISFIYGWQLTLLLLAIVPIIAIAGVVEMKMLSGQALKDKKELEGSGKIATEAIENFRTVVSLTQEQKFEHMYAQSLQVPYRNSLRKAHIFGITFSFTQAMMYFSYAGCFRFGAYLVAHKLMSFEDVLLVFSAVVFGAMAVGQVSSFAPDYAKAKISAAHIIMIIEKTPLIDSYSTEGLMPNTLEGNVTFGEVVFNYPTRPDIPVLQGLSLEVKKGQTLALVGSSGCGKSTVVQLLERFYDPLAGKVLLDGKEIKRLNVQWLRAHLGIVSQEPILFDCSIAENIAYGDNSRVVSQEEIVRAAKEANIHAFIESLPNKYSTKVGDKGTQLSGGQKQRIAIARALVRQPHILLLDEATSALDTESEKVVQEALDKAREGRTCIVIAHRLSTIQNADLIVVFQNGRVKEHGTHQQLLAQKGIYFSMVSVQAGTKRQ

Compound: C=CC(=O)Nc1cc(Nc2nccc(-c3cn(C4CC4)c4ccccc34)n2)c(OC)cc1N(C)CCN(C)C [almonertinib]
- pIC50: ~5.70
